From US12421254B2, “KRAS modulators and uses thereof” (Quanta Therapeutics, Inc., priority 2023, dated 2025)
Read-outs that look alike come from different tables or passages of the source.

How the values were obtained:
[1] = target: GST-tagged KRAS-G12D (2-169) (Homo sapiens, UniProt P01116, G12D); assay: Nucleotide exchange assay (NEA), SOS-mediated, HTRF, KRAS G12D; assay type: biochemical; settings: IC50 extracted at 30 min, 20 nM SOScat
Source text: (§1) This activity is tightly regulated by GTPase activating proteins (GAPs) and guanine nucleotide exchange factors (GEFs). GEFs, such as SOS1/2, activate Ras proteins by exchanging GDP for GTP, thus returning Ras to its active conformation (Simanshu, Nissley, & McCormick, 2017). […] Homogenous time resolved fluorescence (HTRF) was used to detect SOS-mediated binding of a fluorescent GTP analog, GTP-DY-647P1 (Jena Biosciences NU-820-647P1) to GST-tagged KRAS-G12D (2-169) or to GST-tagged KRAS-G12V (2-169, Reaction Biology, MSC-11-540).
(§2) GST-tagged KRAS-G12D (2-169) and anti-GST MAb Tb Cryptate Gold (CisBio 61GSTTLB) were diluted into assay buffer (20 mM HEPES, pH 7.3, 150 mM NaCl, 5 mM MgCl2, 0.05% BSA 0.0025% NP40, 1 mM DTT) to prepare a 2.5× donor solution. 5× compound was added to the protein mixture and incubated for 1 h at RT. 2.5× acceptor solution containing SOS1cat (564-1049, Reaction Biology MSC-11-502) and GTP-DY-647P1 were then added to the donor KRAS mixture such that the final concentration of the reaction contained 0.25 nM GST-tagged KRAS-G12D (2-169), 20 nM SOScat, and 150 nM GTP-DY-647P1. The reaction was monitored using at RT with the Envision multimode plate reader (Ex/Em 337/665, […]) up to 90 minutes at 5 minute intervals. To monitor KRAS-G12V SOS-mediated nucleotide exchange, 80 nM SOS was added to reaction instead of 20 nM. All other components were the same as previously described. Data was blanked to reactions without SOS1 and % inhibition was calculated such that DMSO only =0% and blank=100%. Curve fitting was done using a 4 parameter fit. Reported IC50 values were extracted at 30 min and 90 min for the KRAS-G12D and KRAS-G12V assays, respectively.
NEA KRAS G12D IC50 (uM) values of selected compounds are depicted in Table 2 with compounds having a value <0.01 uM as ++++; ≥0.01 uM to 0.1 uM as +++; ≥0.1 uM to 1 uM as ++; ≥1 uM to 20 uM as +; and ≥20 uM as NA.

[2] = target: GST-tagged KRAS-G12V (2-169) (Homo sapiens, UniProt P01116, G12V); assay: Nucleotide exchange assay (NEA), SOS-mediated, HTRF, KRAS G12V; assay type: biochemical; settings: Table 4; IC50 extracted at 90 min; 80 nM SOS
Sequence of GST-tagged KRAS-G12V (2-169) (P01116 2-169 isoform P01116-2 G12V): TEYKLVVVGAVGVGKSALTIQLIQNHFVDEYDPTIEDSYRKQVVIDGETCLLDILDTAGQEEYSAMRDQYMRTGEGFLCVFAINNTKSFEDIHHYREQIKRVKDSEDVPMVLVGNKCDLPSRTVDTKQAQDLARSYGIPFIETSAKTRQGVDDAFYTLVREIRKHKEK
Source text: as §1, §2

[3] = Table 4, read-out: NEA G12D IC50

Sequence of GST-tagged KRAS-G12D (2-169) (P01116 2-169 isoform P01116-2 G12D): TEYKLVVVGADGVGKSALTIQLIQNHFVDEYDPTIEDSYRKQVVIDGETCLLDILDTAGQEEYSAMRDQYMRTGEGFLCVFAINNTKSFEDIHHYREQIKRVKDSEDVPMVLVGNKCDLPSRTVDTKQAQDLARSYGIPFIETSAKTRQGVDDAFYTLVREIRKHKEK

Row | Compound | IC50 [1, 3] | IC50 [2] | IC50 ([1]; Table 2, read-out: NEA-G12D (uM) IC50)
1 | COC[C@@H]1CC[C@@H](COc2nc(N3CC4(C3)SCc3sc(N)c(C#N)c34)nc(N(CC(F)F)C(C)c3cccnc3N)n2)N1 (mixture of isomers) [Compound 211, 2-amino-1′-[4-[[(1R)-1-(2-amino-3-pyridyl)ethyl]-(2,2-difluoroethyl)amino]-6-[[(2SR,5SR)-5-(methoxymethyl)pyrrolidin-2-yl]methoxy]-1,3,5-triazin-2-yl]spiro[6H-thieno[3,4-b]thiophene-4,3′-azetidine]-3-carbonitrile] | < 0.01 µM | < 10 nM | –
2 | CCN(c1nc(OC[C@@H]2CC[C@@H]3CN(C)CCN32)nc(N2CC3(C2)SCc2sc(N)c(C#N)c23)n1)[C@H](C)c1cccnc1N (mixture of isomers) [Compound 216, 1′-[4-[[(6SR,8aRS)-2-methyl-3,4,6,7,8,8a-hexahydro-1H-pyrrolo[1,2-a]pyrazin-6-yl]methoxy]-6-[[(1R)-1-(2-amino-3-pyridyl)ethyl]-ethyl-amino]-1,3,5-triazin-2-yl]-2-amino-spiro[6H-thieno[3,4-b]thiophene-4,3′-azetidine]-3-carbonitrile] | 0.1 to 1 µM | < 10 nM | –
3 | N#Cc1c(N)sc2c1C1(CN(c3nc(OCC45CCCN4CC(F)C5)nc(N4C5CCC4C(O)C5)n3)C1)SC2 (mixture of isomers) [Compound 282, 2-amino-1′-[4-[[(2R,8S)-2-fluoro-1,2,3,5,6,7-hexahydropyrrolizin-8-yl]methoxy]-6-[(1RS,2SR,4SR)-2-hydroxy-7-azabicyclo[2.2.1]heptan-7-yl]-1,3,5-triazin-2-yl]spiro[6H-thieno[3,4-b]thiophene-4,3′-azetidine]-3-carbonitrile] | 0.1 to 1 µM | 10 to 100 nM | –
4 | N#Cc1c(N)sc2c1C1(CC2)CN(c2nc(OC[C@@]34CCCN3C[C@H](F)C4)nc(O[C@@H]3COC[C@@H]3O)n2)C1 (racemic) [Compound 28, 2-amino-1′-[4-[[(2R,8S)-2-fluoro-1,2,3,5,6,7-hexahydropyrrolizin-8-yl]methoxy]-6-[rac-(3R,4S)-4-hydroxytetrahydrofuran-3-yl]oxy-1,3,5-triazin-2-yl]spiro[5,6-dihydrocyclopenta[b]thiophene-4,3′-azetidine]-3-carbonitrile] | 1 to 20 µM | 100 to 1000 nM | –
5 | C[C@@H]1[C@H](C#N)CCCN1c1nc(OC[C@@]23CCCN2C[C@H](F)C3)nc(N2CC3(CCc4sc(N)c(C#N)c43)C2)n1 (racemic) [Compound 29, 2-amino-1′-[4-[rac-(2R,3R)-3-cyano-2-methyl-1-piperidyl]-6-[[(2R,8S)-2-fluoro-1,2,3,5,6,7-hexahydropyrrolizin-8-yl]methoxy]-1,3,5-triazin-2-yl]spiro[5,6-dihydrocyclopenta[b]thiophene-4,3′-azetidine]-3-carbonitrile] | 0.1 to 1 µM | 100 to 1000 nM | –
6 | CN(c1nc(OC[C@@]23CCCN2C[C@H](F)C3)nc(N2CC3(CCc4sc(N)c(C#N)c43)C2)n1)[C@H]1COC[C@H]1O (racemic) [Compound 53, 2-amino-1′-[4-[[(2R,8S)-2-fluoro-1,2,3,5,6,7-hexahydropyrrolizin-8-yl]methoxy]-6-[[rac-(3S,4S)-4-hydroxytetrahydrofuran-3-yl]-methyl-amino]-1,3,5-triazin-2-yl]spiro[5,6-dihydrocyclopenta[b]thiophene-4,3′-azetidine]-3-carbonitrile] | 1 to 20 µM | 100 to 1000 nM | –
7 | N#Cc1c(N)sc2c1C1(CC2)CN(c2nc(OC[C@@]34CCCN3C[C@H](F)C4)nc(N3CCC[C@H](C#N)[C@@H]3CO)n2)C1 (racemic) [Compound 63, 2-amino-1′-[4-[rac-(2R,3S)-3-cyano-2-(hydroxymethyl)-1-piperidyl]-6-[[(2R,8S)-2-fluoro-1,2,3,5,6,7-hexahydropyrrolizin-8-yl]methoxy]-1,3,5-triazin-2-yl]spiro[3a,5-dihydrocyclopenta[b]thiophene-4,3′-azetidine]-3-carbonitrile] | 0.1 to 1 µM | 100 to 1000 nM | –
8 | N#Cc1c(N)sc2c1C1(CC2)CN(c2nc(OCC3(CN4CCOCC4)CC3)nc(OC3COCC3O)n2)C1 (racemic) [Compound 77, 2-amino-1′-[4-[rac-(3S,4S)-4-hydroxytetrahydrofuran-3-yl]oxy-6-[[1-(morpholinomethyl)cyclopropyl]methoxy]-1,3,5-triazin-2-yl]spiro[5,6-dihydrocyclopenta[b]thiophene-4,3′-azetidine]-3-carbonitrile; 2,2,2-trifluoroacetic acid] | 1 to 20 µM | 100 to 1000 nM | –
9 | N#Cc1c(N)sc2c1C1(CC2)CN(c2nc(OC[C@@]34CCCN3C[C@H](F)C4)nc(O[C@@H]3COC[C@H]3O)n2)C1 (racemic) [Compound 80, 2-amino-1′-[4-[[(2R,8S)-2-fluoro-1,2,3,5,6,7-hexahydropyrrolizin-8-yl]methoxy]-6-[rac-(3R,4R)-4-hydroxytetrahydrofuran-3-yl]oxy-1,3,5-triazin-2-yl]spiro[5,6-dihydrocyclopenta[b]thiophene-4,3′-azetidine]-3-carbonitrile; 2,2,2-trifluoroacetic acid] | – | 1000 to 20000 nM | –
10 | CN(c1nc(OC[C@@]23CCCN2C[C@H](F)C3)nc(N2CC3(CCc4sc(N)c(C#N)c43)C2)n1)[C@@H]1COC[C@H]1O (racemic) [Compound 90, 2-amino-1′-[4-[[(2R,8S)-2-fluoro-1,2,3,5,6,7-hexahydropyrrolizin-8-yl]methoxy]-6-[[rac-(3R,4S)-4-hydroxytetrahydrofuran-3-yl]-methyl-amino]-1,3,5-triazin-2-yl]spiro[5,6-dihydrocyclopenta[b]thiophene-4,3′-azetidine]-3-carbonitrile] | 0.1 to 1 µM | 100 to 1000 nM | –
11 | C[C@@]1(O)CCCN(c2nc(OC[C@@]34CCCN3[C@H](COc3cc(C(F)(F)F)ncn3)CC4)nc(N3CC4(C3)SCc3sc(N)c(C#N)c34)n2)C1 (racemic) [Compound 253, 2-amino-1′-[4-[(3R)-3-hydroxy-3-methyl-1-piperidyl]-6-[[(3SR,8SR)-3-[[6-(trifluoromethyl)pyrimidin-4-yl]oxymethyl]-1,2,3,5,6,7-hexahydropyrrolizin-8-yl]methoxy]-1,3,5-triazin-2-yl]spiro[6H-thieno[3,4-b]thiophene-4,3′-azetidine]-3-carbonitrile] | – | < 10 nM | –
12 | N#Cc1c(N)sc2c1C1(CN(c3nc(OC[C@@]45CCCN4C[C@H](F)C5)nc(N4[C@H]5CC[C@@H]4[C@H](C#N)C5)n3)C1)SC2 (racemic) [Compound 279, 2-amino-1′-[4-[(1RS,2RS,4SR)-2-cyano-7-azabicyclo[2.2.1]heptan-7-yl]-6-[[(2R,8S)-2-fluoro-1,2,3,5,6,7-hexahydropyrrolizin-8-yl]methoxy]-1,3,5-triazin-2-yl]spiro[6H-thieno[3,4-b]thiophene-4,3′-azetidine]-3-carbonitrile] | 0.1 to 1 µM | – | –
13 | CC1(O)CCCN(c2nc(OCC34CCCN3C(COc3cc(C(F)(F)F)ncn3)CC4)nc(N3CC4(C3)SCc3sc(N)c(C#N)c34)n2)C1 (single isomer, unassigned) [Compound 256B] | < 0.01 µM | – | –
14 | N#Cc1c(N)sc2c1C1(CCC2)CN(c2nc(OCC3(CN4CCOCC4)CC3)nc(N3CCC[C@]4(C3)NC(=O)NC4=O)n2)C1 [Compound 6, 2-amino-1′-[4-[[1-(morpholinomethyl)cyclopropyl]methoxy]-6-[(5R)-2,4-dioxo-1,3,9-triazaspiro[4.5]decan-9-yl]-1,3,5-triazin-2-yl]spiro[6,7-dihydro-5H-benzothiophene-4,3′-azetidine]-3-carbonitrile] | – | – | 0.01 to 0.1 µM
15 | N#Cc1c(N)sc2c1C1(CN(c3nc(OC[C@@]45CCCN4C[C@H](F)C5)nc(N4CCC5(CCN5C(=O)n5cncn5)C4)n3)C1)SC2 (stereo partly drawn) [Compound 248, 2-amino-1′-[4-[[(2R,8S)-2-fluoro-1,2,3,5,6,7-hexahydropyrrolizin-8-yl]methoxy]-6-[1-(1,2,4-triazole-1-carbonyl)-1,7-diazaspiro[3.4]octan-7-yl]-1,3,5-triazin-2-yl]spiro[6H-thieno[2,3-c]thiophene-4,3′-azetidine]-3-carbonitrile] | – | 1000 to 20000 nM | –
16 | N#Cc1c(N)sc2c1C1(CN(c3nc(OC[C@@]45CCCN4C[C@H](F)C5)nc(N4[C@H]5CC[C@@H]4C(=O)C5)n3)C1)SC2 [Compound 280, 2-amino-1′-[4-[[(2R,8S)-2-fluoro-1,2,3,5,6,7-hexahydropyrrolizin-8-yl]methoxy]-6-(2-oxo-7-azabicyclo[2.2.1]heptan-7-yl)-1,3,5-triazin-2-yl]spiro[6H-thieno[3,4-b]thiophene-4,3′-azetidine]-3-carbonitrile] | 0.01 to 0.1 µM | – | –
